Laboratory results published in PubChem BioAssay (NCI).
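Briefly, cells in 96-well plates were exposed to five compound concentrations for 48 h, and endpoints were estimated by linear interpolation. GI50: concentration for 50% inhibition of growth. The concentration for full growth arrest is given as TGI.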

Columns and labels:
Test in all cases: inhibition of tumour cell growth, NCI panel, 48 h
[1] = tested on: 786-0 renal
[2] = tested on: A498 renal
[3] = tested on: A549 NSCLC
[4] = tested on: ACHN renal
[5] = tested on: BT-549 breast
[6] = tested on: CAKI-1 renal
[7] = tested on: CCRF-CEM leukemia
[8] = tested on: COLO 205 colon
[9] = tested on: DU-145 prostate
[10] = tested on: HCC-2998 colon
[11] = tested on: HCT-116 colon
[12] = tested on: HCT-15 colon
[13] = tested on: HL-60(TB) leukemia
[14] = tested on: HOP-62 NSCLC
[15] = tested on: HOP-92 NSCLC
[16] = tested on: HS 578T breast
[17] = tested on: HT29 colon
[18] = tested on: IGROV1 ovarian
[19] = tested on: K-562 leukemia
[20] = tested on: KM12 colon
[21] = tested on: LOX IMVI melanoma
[22] = tested on: M14 melanoma
[23] = tested on: MALME-3M melanoma
[24] = tested on: MCF7 breast
[25] = tested on: MDA-MB-231 breast
[26] = tested on: MDA-MB-435
[27] = tested on: MOLT-4 leukemia
[28] = tested on: NCI-H226 lung
[29] = tested on: NCI-H23 lung
[30] = tested on: NCI-H460 lung
[31] = tested on: NCI-H522 lung
[32] = tested on: NCI/ADR-RES ovarian
[33] = tested on: OVCAR-3 ovarian
[34] = tested on: OVCAR-4 ovarian
[35] = tested on: OVCAR-5 ovarian
[36] = tested on: OVCAR-8 ovarian
[37] = tested on: PC-3 prostate
[38] = tested on: RPMI-8226 leukemia
[39] = tested on: RXF 393 renal
[40] = tested on: SF-268 CNS
[41] = tested on: SF-295 CNS
[42] = tested on: SF-539 CNS
[43] = tested on: SK-MEL-2 melanoma
[44] = tested on: SK-MEL-28 melanoma
[45] = tested on: SK-MEL-5 melanoma
[46] = tested on: SK-OV-3 ovarian
[47] = tested on: SN12C renal
[48] = tested on: SNB-19 CNS
[49] = tested on: SNB-75 CNS
[50] = tested on: SR leukemia
[51] = tested on: SW-620 colon
[52] = tested on: T-47D breast
[53] = tested on: TK-10 renal
[54] = tested on: U251 CNS
[55] = tested on: UACC-257 melanoma
[56] = tested on: UACC-62 melanoma
[57] = tested on: UO-31 renal

For `COc1ccc([I+]c2ccccc2)cc1`, the GI50 [1] was 16.4 µM, the TGI [1] was over 100 µM and the GI50 [2] was 1.9 µM. For the same compound, the TGI [2] was over 93.2 µM, the GI50 [3] was 4.38 µM and the TGI [3] was over 100 µM. It also gave a GI50 [4] of 42.7 µM, a TGI [4] of over 100 µM and a GI50 [5] of 4.12 µM. The TGI [5] was over 78.8 µM, the GI50 [6] was 12.5 µM and the TGI [6] was over 100 µM. The GI50 [7] was 2.86 µM, the TGI [7] was over 100 µM and the GI50 [8] was 5.95 µM. For the same compound, the TGI [8] was over 100 µM, the GI50 [9] was 23 µM and the TGI [9] was over 100 µM. For the same compound, the GI50 [10] was 10 µM, the TGI [10] was over 100 µM and the GI50 [11] was 0.735 µM. The TGI [11] was over 100 µM, the GI50 [12] was 42.1 µM and the TGI [12] was over 100 µM. The GI50 [13] was 5.22 µM, the TGI [13] was over 95.1 µM and the GI50 [14] was 2.91 µM. It also gave a TGI [14] of 79.2 µM, a GI50 [15] of 6.55 µM and a TGI [15] of 81.9 µM. The GI50 [16] was 15.9 µM, the TGI [16] was over 100 µM and the GI50 [17] was 4.22 µM. The TGI [17] was over 100 µM, the GI50 [18] was 8.99 µM and the TGI [18] was over 100 µM. It also gave a GI50 [19] of 1.45 µM, a TGI [19] of over 100 µM and a GI50 [20] of 4.27 µM. It also gave a TGI [20] of over 100 µM, a GI50 [21] of 3.47 µM and a TGI [21] of over 100 µM. For the same compound, the GI50 [22] was 9.09 µM, the TGI [22] was over 100 µM and the GI50 [23] was 7.8 µM. The TGI [23] was over 100 µM, the GI50 [24] was 5.69 µM and the TGI [24] was over 100 µM. It also gave a GI50 [25] of over 78.2 µM, a TGI [25] of over 100 µM and a GI50 [26] of 10.1 µM. The TGI [26] was over 100 µM, the GI50 [27] was 7.59 µM and the TGI [27] was over 100 µM. It also gave a GI50 [28] of 12.2 µM, a TGI [28] of over 100 µM and a GI50 [29] of 3.75 µM. The TGI [29] was over 100 µM, the GI50 [30] was 5.17 µM and the TGI [30] was over 100 µM. It also gave a GI50 [31] of 24.5 µM, a TGI [31] of over 100 µM and a GI50 [32] of over 100 µM. The TGI [32] was over 100 µM, the GI50 [33] was 8.86 µM and the TGI [33] was over 100 µM. For the same compound, the GI50 [34] was 1.34 µM, the TGI [34] was over 100 µM and the GI50 [35] was over 100 µM. The TGI [35] was over 100 µM, the GI50 [36] was 1.37 µM and the TGI [36] was over 100 µM. It also gave a GI50 [37] of 9.07 µM, a TGI [37] of over 100 µM and a GI50 [38] of 2.04 µM. It also gave a TGI [38] of over 78.1 µM, a GI50 [39] of 13.9 µM and a TGI [39] of over 100 µM. It also gave a GI50 [40] of 6.3 µM, a TGI [40] of over 100 µM and a GI50 [41] of 7.17 µM. For the same compound, the TGI [41] was 78.2 µM, the GI50 [42] was 6.77 µM and the TGI [42] was over 100 µM. For the same compound, the GI50 [43] was 51.4 µM, the TGI [43] was over 100 µM and the GI50 [44] was 25.9 µM. For the same compound, the TGI [44] was over 100 µM, the GI50 [45] was 2.61 µM and the TGI [45] was 11.5 µM. The GI50 [46] was 50.2 µM, the TGI [46] was over 100 µM and the GI50 [47] was 40.3 µM. For the same compound, the TGI [47] was over 100 µM, the GI50 [48] was 11.3 µM and the TGI [48] was over 100 µM. The GI50 [49] was 14 µM, the TGI [49] was over 100 µM and the GI50 [50] was 1.78 µM. For the same compound, the TGI [50] was over 100 µM, the GI50 [51] was 3.37 µM and the TGI [51] was over 100 µM. It also gave a GI50 [52] of 9.22 µM, a TGI [52] of over 100 µM and a GI50 [53] of 17.4 µM. For the same compound, the TGI [53] was over 100 µM, the GI50 [54] was 7.94 µM and the TGI [54] was over 100 µM. For the same compound, the GI50 [55] was 8.81 µM, the TGI [55] was over 100 µM and the GI50 [56] was 37.2 µM. For the same compound, the TGI [56] was over 100 µM, the GI50 [57] was 26.8 µM and the TGI [57] was over 100 µM.
